Measured values as given in paper PMC11189555, “Aryl amino acetamides prevent Plasmodium falciparum ring development via targeting the lipid-transfer protein PfSTART1” (Nature Communications, 2024).
Where “and” joins values, the source holds several entries; their conditions need not be identical. Equal values may be shown once. Read-outs that look alike come from different tables or passages of the source.

System: CR-N330K parasites
Experiment: Growth inhibition assay (72 h, LDH activity)
Format: cell-based, Plasmodium falciparum
Conditions: for inhibition at up to 5 µM: dilution point 5 of 10, read-out: Growth inhibition assay, NORMALISED
Method: Parasite growth assays with inhibitory compounds were performed as per[11] and are fully described in the Supplementary Information.
Molecular biology and transfection of P. falciparum: CRISPR method.
The full 5’ homology region of pfstart1 (either WT, N309K or N330K) was amplified from pPfSTART1-HA-2A-Neo-glmS with the same 5’ BglII primer and a new 3’ primer that replaced with PstI with SpeI and introduced a stop codon. The PCR product was then digested with BglII and SpeI and inserted into similarly digested p1.2 parasite vector2. The p1.2 vector had previously been inserted with a homology region amplified from the 3’ end of the pfstart1 gene (3’HB) to form a second homology block for double recombination. The primers used to amplify 3’HB are listed primers listed in […]
60 μg of p1.2-PfSTART1(WT/N309K/N330K) plasmid was linearised with KasI, precipitated in 3 M sodium acetate and ethanol (70% final concentration) overnight at -20°C. The DNA pellet was washed in cold 70% ethanol and resuspended in cytomix 3.
50 μ M of crRNA ( Table S 2) and 50 μM of tracRNA (Integrated DNA Technologies) were allowed to form a duplex (5 min at 95°C), and Cas9 enzyme (Integrated DNA Technologies) was added, and incubated for 20 min at room temperature 4. This crRNA -tracRNA -Cas9 mix was added to each DNA preparation and transfected to 3D7 ring parasites using the Bio -Rad Gene Pulser at 310 V and 950 μF.
Parasites containing the transfected DNA were selected using 2.5 nM WR99210 (Jacobus). Parasites lines were cloned using limiting dilution. Correct integration was tested by PCR (using primer START_5’UTR.F and START_Int.R1 , Table S 2), and sequencing was done using the primers START_3F and START_Int.R2 (Table S 2).
Growth inhibition assays. Synchronised ring-stage parasites (0.3-0.6% parasitemia, 2% haematocrit) were grown for 72 h in a serial-dilution of the compound under […]
and compound 4. Note that M-833 was first purchased from MolPort (MolPort -002-267-916) then made in-house at WEHI: the differences observed in EC50s across experiments are attributed to the different batches of M -833. For some experiments, 0, 0.25 or 2.5 mM of glucosamine (GlcN) was also added. Experiments were set up in technical duplicates or triplicates. Following a freeze -thaw cycle, lactate dehydrogenase (LDH) activity was assessed as an indicator of parasite growt h 5. 30 μL of parasite culture was incubated for 30 min in the dark with 75 μL Malstat mixture (0.1 M Tris pH 9.0, 20 g/L lactic acid, pH 7.5, 0.2% Triton-X100, 0.5 g/L acetylpyridine adenine dinucleotide (APAD, Sigma), 200 μg/mL nitroblue tetrazolium (NBT; Sigma), 1 μg/mL phenozine ethosulfate (PES; Sigma)). Absorbance was then measured at 650 nm, transformed using the formula below, plotted against the logarithm of the concentrations, and a non-linear regression (log(inhibitor) vs. response, variable slope) was calculated using GraphPad Prism to assess the half-inhibitory […]
Growth inhibition % = (1 − average(sample)− average(uRBC)) ∗ 100 […]
The DMSO samples were also used to assess growth of parasite in the presence of 0.25 and 2.5 mM GlcN (normalised by DMSO in 0 mM GlcN).
Egress, invasion & recovery assay. To measure egress, invasion and follow up recovery in the presence of different compounds, we adapted the method developed in6, using Hyp1-Nluc parasites7. These parasites episomally express the exported PEXEL protein Hyp1 (PF3D7_0113300) tagged with a NanoLuc luciferase (NLuc) and were selected with 2.5 nM WR99210 (Jacobus). Highly synchronised schizonts were obtained using ML10 (LifeArc) and sorbitol synchronisation, and Percoll-purified (the culture was gently layered over 67% Percoll (Cytiva) in RPMI, and centrifuged for 15 min at 1500 g and the schizont layer was collected and washed). In a 96-well plate, […]

SMILES: CC(C)(Nc1ccc(Cl)c(S(=O)(=O)N2CCOCC2)c1)C(=O)Nc1ccc(F)c(Cl)c1 [W-991]
- NORMALISED (growth inhibition, LDH absorbance) (2.5 mM GlcN, dilution point 9 of 10 from starting concentration 5 uM): 10.3592 and 12.8289
- fold less susceptible than the 3D7 and CR-WT controls (Fig 4C): around 600 fold
- fold sensitised on PfSTART1 knock-down with GlcN (Fig 4C): 7.3 fold
- EC50 (Fig 4C, 0 mM GlcN, n = 3, read-out: EC50 W-991 (95% confidence interval)): < 0.7 µM
- inhibition at 5 µM (Plasmodium falciparum, 0 mM GlcN, dilution point 1 of 10, starting concentration 5 uM, read-out: NORMALISED (growth inhibition, LDH absorbance)): 84.5%
- inhibition (Plasmodium falciparum, 0 mM GlcN, starting concentration 5 uM, dilution point 1 of 10, read-out: Growth inhibition assay, NORMALISED): 90.1%
- inhibition (Plasmodium falciparum, 0 mM GlcN, starting concentration 5 uM, dilution point 3 of 10, read-out: Growth inhibition assay, NORMALISED): 50.4%
- inhibition (Plasmodium falciparum, 0 mM GlcN, starting concentration 5 uM, dilution point 4 of 10, read-out: Growth inhibition assay, NORMALISED): 20.2%
- inhibition at up to 5 µM (Plasmodium falciparum, 0 mM GlcN, starting concentration 5 uM): 14.5%
- inhibition (Plasmodium falciparum, 0 mM GlcN, starting concentration 5 uM, dilution point 6 of 10, read-out: Growth inhibition assay, NORMALISED): 9.02%
- inhibition (Plasmodium falciparum, 0 mM GlcN, starting concentration 5 uM, dilution point 7 of 10, read-out: Growth inhibition assay, NORMALISED): 9.74%
- inhibition (Plasmodium falciparum, 0 mM GlcN, starting concentration 5 uM, dilution point 8 of 10, read-out: Growth inhibition assay, NORMALISED): 9.24%
- inhibition (Plasmodium falciparum, 0 mM GlcN, starting concentration 5 uM, dilution point 9 of 10, read-out: Growth inhibition assay, NORMALISED): 12.9%
- inhibition (Plasmodium falciparum, 0 mM GlcN, starting concentration 5 uM, dilution point 10 of 10, read-out: Growth inhibition assay, NORMALISED): 5.95%
- inhibition at 5 µM (Plasmodium falciparum, 0.25 mM GlcN, dilution point 1 of 10, starting concentration 5 uM, read-out: NORMALISED (growth inhibition, LDH absorbance)): 86.4%
- inhibition at 5 µM (Plasmodium falciparum, 0.25 mM GlcN, starting concentration 5 uM, dilution point 1 of 10, read-out: Growth inhibition assay, NORMALISED): 87.6%
- inhibition at 5 µM (Plasmodium falciparum, 0.25 mM GlcN, starting concentration 5 uM, dilution point 2 of 10, read-out: Growth inhibition assay, NORMALISED): 84.3%
- inhibition at 5 µM (Plasmodium falciparum, 0.25 mM GlcN, starting concentration 5 uM, dilution point 3 of 10, read-out: Growth inhibition assay, NORMALISED): 66.9%
- inhibition at 5 µM (Plasmodium falciparum, 0.25 mM GlcN, starting concentration 5 uM, dilution point 4 of 10, read-out: Growth inhibition assay, NORMALISED): 35.9%
- inhibition at 5 µM (Plasmodium falciparum, 0.25 mM GlcN, starting concentration 5 uM, dilution point 6 of 10, read-out: Growth inhibition assay, NORMALISED): 2.77%
- inhibition at 5 µM (Plasmodium falciparum, 0.25 mM GlcN, starting concentration 5 uM, dilution point 7 of 10, read-out: Growth inhibition assay, NORMALISED): 9.45%
- inhibition at 5 µM (Plasmodium falciparum, 0.25 mM GlcN, starting concentration 5 uM, dilution point 8 of 10, read-out: Growth inhibition assay, NORMALISED): 11.2%
- inhibition at 5 µM (Plasmodium falciparum, 0.25 mM GlcN, starting concentration 5 uM, dilution point 9 of 10, read-out: Growth inhibition assay, NORMALISED): 16.2%
- inhibition at 5 µM (Plasmodium falciparum, 0.25 mM GlcN, starting concentration 5 uM, dilution point 10 of 10, read-out: Growth inhibition assay, NORMALISED): 6.13%
- inhibition (Plasmodium falciparum, 2.5 mM GlcN, starting concentration 5 uM, dilution point 1 of 10, read-out: Growth inhibition assay, NORMALISED): 33.9%
- inhibition (Plasmodium falciparum, 2.5 mM GlcN, starting concentration 5 uM, dilution point 2 of 10, read-out: Growth inhibition assay, NORMALISED): 33.5%
- inhibition (Plasmodium falciparum, 2.5 mM GlcN, starting concentration 5 uM, dilution point 3 of 10, read-out: Growth inhibition assay, NORMALISED): 23.8%
- inhibition (Plasmodium falciparum, 2.5 mM GlcN, starting concentration 5 uM, dilution point 4 of 10, read-out: Growth inhibition assay, NORMALISED): 10.8%
- inhibition at up to 5 µM (Plasmodium falciparum, 2.5 mM GlcN, starting concentration 5 uM): -13.2%
- inhibition (Plasmodium falciparum, 2.5 mM GlcN, starting concentration 5 uM, dilution point 6 of 10, read-out: Growth inhibition assay, NORMALISED): -23.5%
- inhibition (Plasmodium falciparum, 2.5 mM GlcN, starting concentration 5 uM, dilution point 7 of 10, read-out: Growth inhibition assay, NORMALISED): -34.6%
- inhibition (Plasmodium falciparum, 2.5 mM GlcN, starting concentration 5 uM, dilution point 8 of 10, read-out: Growth inhibition assay, NORMALISED): -22.6%
- inhibition (Plasmodium falciparum, 2.5 mM GlcN, starting concentration 5 uM, dilution point 9 of 10, read-out: Growth inhibition assay, NORMALISED): -27.3%
- inhibition (Plasmodium falciparum, 2.5 mM GlcN, starting concentration 5 uM, dilution point 10 of 10, read-out: Growth inhibition assay, NORMALISED): -18.7%
- EC50 (Plasmodium falciparum, read-out: EC50 W-991 (95% confidence interval), Fig 4C, 0 mM GlcN, n = 3): 0.623 µM
- EC50 (Plasmodium falciparum, read-out: EC50 W-991 (95% confidence interval), Fig 4C, 0.25 mM GlcN, n = 3): 0.336 µM
- EC50 (Plasmodium falciparum, read-out: EC50 W-991 (95% confidence interval), Fig 4C, 2.5 mM GlcN, n = 3): 0.0853 µM
- EC50 (read-out: EC50 W-991 (95% confidence interval), Fig 4C, 0 mM GlcN, n = 3): 0.623 µM
